The text below walks through data of ChEMBL document CHEMBL1287663 (Bioorg Med Chem, 2010).

For one data set, the species on record is Homo sapiens. The data set is described as follows: Selectivity ratio of IC50 for human IMPDH1 to IC50 for human IMPDH2.
Data set [1] deals with K562. The data set is described as follows: Cytotoxicity against human K562 cells after 72 hrs by trypan blue exclusion assay. It counts as functional, cell-based. The conditions noted are these: K562, 72 h.
In data set [2] the test system is K562. The data set can be described thus: Induction of human K562 cells differentiation assessed as hemoglobin/genomic DNA level at 4 uM after 72 hrs relative to untreated control. The data set is classed as functional.
For data set [3], the system named is K562. The data set is described as follows: Induction of human K562 cells differentiation assessed as hemoglobin/genomic DNA level at 2 uM after 72 hrs relative to untreated control. The data set is classed as functional.
Data set [4] addresses Inosine-5'-monophosphate dehydrogenase 1 (Homo sapiens, UniProt P20839). The data set is described as follows: Inhibition of human IMPDH1 expressed in Escherichia coli strain BL21(DE3) after 60 mins.
The subject of data set [5] is K562. The data set can be described thus: Induction of human K562 cells differentiation assessed as hemoglobin/genomic DNA level at 8 uM after 72 hrs relative to untreated control. The data set is classed as functional.
In data set [6] the target is Inosine-5'-monophosphate dehydrogenase 2 (Homo sapiens, UniProt P12268). The data set can be described thus: Inhibition of human IMPDH2 expressed in Escherichia coli strain BL21(DE3) after 60 mins.
Data set [7] concerns K562. The data set is described as follows: Induction of human K562 cells differentiation assessed as hemoglobin/genomic DNA level at 16 uM after 72 hrs relative to untreated control. It counts as functional.
Data set [8] relates to K562. The data set is described as follows: Induction of human K562 cells differentiation assessed as hemoglobin/genomic DNA level at 32 uM after 72 hrs relative to untreated control. It counts as functional.
The next data set relates to HeLa. The data set can be described thus: Antiproliferative activity against human HeLa cells. The data set is classed as functional, cell-based.
Data set [9] is described as follows: Inhibition of HDAC.
A further data set concerns IMPDH2. The data set can be described thus: Selectivity ratio of IC50 for human K562 cells to IC50 for human IMPDH2. The data set is classed as ADME, cell-based. The conditions noted are these: K562 cells versus IMPDH2 enzyme, read-out: Ratio IC50.
Data set [10] deals with K562. The data set is described as follows: Induction of human K562 cells differentiation assessed as hemoglobin/genomic DNA level at 1 uM after 72 hrs relative to untreated control. It counts as functional.
The test system of data set [11] is K562. The data set is described as follows: Induction of human K562 cells differentiation assessed as hemoglobin/genomic DNA level at 0.5 uM after 72 hrs relative to untreated control. It counts as functional.
Data set [12] relates to K562. The data set is described as follows: Induction of human K562 cells differentiation assessed as hemoglobin/genomic DNA level at 0.25 uM after 72 hrs relative to untreated control. It counts as functional.

Inosine-5'-monophosphate dehydrogenase 1, sequence (P20839 whole entry): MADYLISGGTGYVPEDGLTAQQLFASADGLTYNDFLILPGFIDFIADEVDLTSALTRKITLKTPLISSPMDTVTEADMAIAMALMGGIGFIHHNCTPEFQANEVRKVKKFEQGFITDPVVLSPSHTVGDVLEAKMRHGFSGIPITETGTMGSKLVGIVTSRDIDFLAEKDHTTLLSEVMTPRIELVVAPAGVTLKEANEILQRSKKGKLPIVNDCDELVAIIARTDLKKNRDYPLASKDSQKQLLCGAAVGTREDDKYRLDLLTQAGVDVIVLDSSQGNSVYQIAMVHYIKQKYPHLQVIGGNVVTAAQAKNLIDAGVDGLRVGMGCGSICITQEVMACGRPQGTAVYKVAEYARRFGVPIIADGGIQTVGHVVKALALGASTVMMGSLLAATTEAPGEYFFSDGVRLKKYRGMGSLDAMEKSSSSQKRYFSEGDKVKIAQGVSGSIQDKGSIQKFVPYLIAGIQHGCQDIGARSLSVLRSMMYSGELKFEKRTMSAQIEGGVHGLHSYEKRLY

One may read the IC50 as the concentration at which inhibition is half-maximal. Take `COc1c(C)c2c(c(OC)c1C/C=C(\C)CCC(=O)O)C(=O)OC2`: the Ratio IC50 in the data set filed under Homo sapiens stood at 0.93. In addition, the half-maximal inhibitory concentration (IC50) in the data set with K562 [1] is greater than 50000 nM; in data set [4] it was 67000 nM; in data set [6], 72000 nM. In addition, the Ratio is on record as 1.1 in the data set on K562 [2]; 1.2 in the data set with K562 [3]; 1.1 in the data set on K562 [5]; 1.4 in the data set with K562 [7]; 1 with K562 [8].

In turn, `COc1c(C)c2c(c(O)c1C/C=C(\C)CCC(=O)O)C(=O)OC2` [MYCOPHENOLIC ACID] yielded an IC50 in data set [4] of 19 nM.

For `CCCCCCCCCCCCOc1c(C/C=C(\C)CCC(=O)NO)c(OC)c(C)c2c1C(=O)OC2`, the IC50 in the data set on HeLa stood at 1000 nM; in data set [9], 500 nM.

With `COc1c(C)c2c(c(O)c1C/C=C(\C)CCCO)C(=O)OC2`, in the data set filed under Homo sapiens, the Ratio IC50 came to 0.97. The IC50 was found to be 3900 nM in the data set with K562 [1], 770 nM in data set [4] and 790 nM in data set [6]. Moreover, the Ratio in the data set with K562 [2] was found to be 1.3; with K562 [3], 0.7; in the data set on K562 [5] it was 2.5; in the data set with K562 [7], 3.8; in the data set with K562 [8], 4.7. Also, the selectivity ratio with IMPDH2 was found to be 4.9.

As to `COc1c(C)c2c(c(OC)c1C/C=C(\C)CCC(=O)NO)C(=O)OC2`, the IC50 with HeLa came to 50000 nM; in [9] it was 900 nM.

As for `COc1c(C)c2c(c(OC(C)=O)c1C/C=C(\C)CCC(=O)NO)C(=O)OC2`, the values for the IC50 (in the data set on HeLa; in data set [9]) were 1500 nM and 900 nM, respectively.

As for `COc1c(C)c2c(c(OC(C)=O)c1C/C=C(\C)CCC(=O)O)C(=O)OC2`, in the data set listed under Homo sapiens, the Ratio IC50 is 1. In addition, the IC50 stood at 590 nM in the data set with K562 [1], 4100 nM in data set [4] and 4100 nM in [6]. Besides, the Ratio was determined as 2.9 with K562 [10]; 5.3 with K562 [2]; 4.2 in the data set with K562 [3]; 1.8 with K562 [11]; 6 in the data set on K562 [5]. Further, in the data set with IMPDH2, the selectivity ratio was found to be 0.14.

`COc1c(C)c2c(c(O)c1C/C=C(\C)CCC(=O)NO)C(=O)OC2` [MYCOPHENOLIC HYDROXAMIC ACID]: the Ratio IC50 in the data set filed under Homo sapiens came out at 0.83. The IC50 stood at 2100 nM with K562 [1]; 350 nM in data set [4]; 420 nM in data set [6]; 2000 nM with HeLa; 1000 nM in [9]. For the same compound, the Ratio in the data set with K562 [10] is 0.8; in the data set on K562 [2], 2.9; in the data set on K562 [3], 1; with K562 [5], 3.2; in the data set on K562 [7], 1.8; in the data set on K562 [8] it was 1.7. Further, in the data set with IMPDH2, the selectivity ratio was determined as 5.

For the compound `C/C(=C\Cc1c(O)c(C)c2c(c1O)C(=O)OC2)CCC(=O)O`, the Ratio IC50 in the data set filed under Homo sapiens was found to be 0.88. Also, the IC50 in the data set with K562 [1] is 8200 nM; in data set [4], 150 nM; in [6], 170 nM. Besides, the Ratio with K562 [10] worked out at 1.4; in the data set on K562 [2], 1.1; in the data set on K562 [3], 1.1; in the data set on K562 [7], 1.8; in the data set with K562 [8] it was 3.1. In the data set with IMPDH2, the selectivity ratio worked out at 48.

On to `COC(=O)CC/C(C)=C/Cc1c(O)c2c(c(C)c1OC)COC2=O`, for which the Ratio IC50 in the data set listed under Homo sapiens was found to be 1.1. In addition, the concentration for half-maximal inhibition (IC50) in the data set with K562 [1] was determined as 730 nM; in [4], 1500 nM; in data set [6] it was 1400 nM. The Ratio was 2.1 in the data set with K562 [10]; 4.9 with K562 [2]; 3.5 in the data set on K562 [3]; 1 in the data set on K562 [11]; 1 in the data set on K562 [12]; 5.6 in the data set with K562 [5]. Besides, in the data set on IMPDH2, the selectivity ratio is 0.52.
